{
  "source": "patent US20040063681A1",
  "about": "“Methods for using gold (III) complexes as anti-tumor and anti-HIV agents” (priority 2002, published 2004)",
  "key": {"HeLa cells": {"test_system": "HeLa cells", "assay": "Flow cytometry annexin V/propidium iodide apoptosis assay", "type": "cell-based, human", "conditions": "after treatment (Complex 1a 6 and 15 h; straurosporine 15 h)", "description": "Flow cytometry: The gold(III) porphyrin-induced apoptosis of the HeLa cell line has been further examined by flow cytometry. During the early phase of apoptosis, cells lose the asymmetry of their membrane phospholipids, although the integrity of the cell membrane is maintained. A negatively charged phospholipid, named phosphatidylserine (PS), which is located in the inner part of the plasma membrane, becomes exposed to the cell surface. A phospholipid-binding protein, annexin V (green emissive upon binding), with high affinity binds preferentially to PS. Apoptotic cells therefore can be stained by annexin V before the dying cell changes its morphology and hydrolyzes its DNA. On the other hand, both DNA and the PS would be exposed for necrotic cells. In this case, propidium iodide (PI, red emissive upon binding), can be used to stain selectively the naked DNA. Therefore, both apoptotic and necrotic cells can be discriminated after adding these two staining reagents. For apoptotic cells, only annexin V would stain; for necrotic cells, both annexin V and PI would stain.\nFor comparison, a control cell culture experiment was performed in the absence of Complex 1a and straurosporine. […] Throughout the flow cytometric experiment, <1% of necrotic cells were observed."}, "[1]": {"test_system": "Human Cervix Epitheloid Carcinoma (HeLa)", "assay": "MTT cytotoxicity, HeLa", "type": "cell-based", "description": "(§1) Human promyelocytic leukemia (HL-60), human hepatocellular carcinoma (HepG2), Human cervix epitheloid carcinoma cells (HeLa) and human oral epidermoid carcinoma cells (KB-3-1), were obtained from American Type Culture Collection (ATCC) (Rockville, Md.). […] Cell culture flasks and 96 well microtitre plates were from Nalge Nunc hit. Culture medium, other medium constituents and phosphate buffered saline (PBS) were obtained from Gibco BRL (Rockville, Md.). Cell Proliferation Kit I (MTT) was purchased from Roche (Mannheim, Germany)."}, "[2]": {"test_system": "Human Nasopharyngeal Carcinoma (SUNE1)", "assay": "MTT cytotoxicity, SUNE1", "type": "cell-based", "description": "as §1"}, "[3]": {"assay": "Control UV-vis titration with sodium dodecyl sulfate instead of DNA", "type": "binding", "conditions": "sodium dodecyl sulfate (0-5 μM) instead of DNA", "description": "See Neidle, S. DNA structure and recognition; Oxford University Press: Oxford, 1994; 74-79."}, "calf thymus DNA [4]": {"test_system": "calf thymus DNA", "assay": "UV-vis absorption titration with calf thymus DNA", "type": "binding", "conditions": "for hypochromicity / intrinsic binding constant (Kb): Tris buffer", "method": "The calf thymus DNA was purchased from Sigma-Aldrich Chemical Co. and was purified by phenol-chloroform extraction. The DNA was dissolved in buffer (5 mM Tris, 5 mM NaCl, pH 7.2). The concentration (per base pair) of calf thymus DNA was determined spectrophotometrically on the basic of ε260, 13,200 M^−1cm^−1bp.\nAbsorption Titration. The binding interaction of the gold(III) porphyrins to duplex DNA has been studied by UV-vis spectroscopy.\nwhere [ctDNA] is the concentration of DNA, Δεap═|εA−εB| in which εA=Aobs/[complex], and Δε=|εB−εF|. εB and εF correspond to the extinction coefficient of DNA-bound gold(III) porphyrin and the free gold(III) porphyrins, respectively.\nThe effect of temperature on the intrinsic binding constants was investigated. Using the van't Hoff equation (2): […]"}, "[5]": {"test_system": "Human Nasopharyngeal Carcinoma (cisplatin resistance, CNE1)", "assay": "MTT cytotoxicity, CNE1", "type": "cell-based", "description": "as §1"}, "[6]": {"test_system": "Human Promyelocytic Leukemia (HL-60)", "assay": "MTT cytotoxicity, HL-60", "type": "cell-based", "conditions": "growth inhibition", "description": "(§2) Human promyelocytic leukemia (HL-60), human hepatocellular carcinoma (HepG2), Human cervix epitheloid carcinoma cells (HeLa) and human oral epidermoid carcinoma cells (KB-3-1), were obtained from American Type Culture Collection (ATCC) (Rockville, Md.). The multi-drug-resistant variant KB-V1 cell line was obtained by stepwise selections for vinblastine resistance as described by Shen et al., J. Biol. Chem. 261:7762-7770 (1986)], and was generously provided by Dr Michael Gottesman (NIH, Bethesda, Md.). Human nasopharyngeal carcinoma cells (SUNE1 and its cisplatin resistance variant, CNE1) were derived from poorly differentiated NPC in Chinese patients as described by Gu et al., Chin. J. Cancer 2:270-272 (1983), and were generously provided by Dr S. W. Tsao (The University of Hong Kong, Hong Kong, PRC). Cell culture flasks and 96 well microtitre plates were from Nalge Nunc hit. Culture medium, other medium constituents and phosphate buffered saline (PBS) were obtained from Gibco BRL (Rockville, Md.). Cell Proliferation Kit I (MTT) was purchased from Roche (Mannheim, Germany).\n(§3) The anti-cancer activities of the gold(III) porphyrin complexes were evaluated toward some established human cancer cell lines: promyelocytic leukemia (HL-60), hepatocellular carcinoma (HepG2), cervix epitheloid carcinoma (HeLa), epidermoid carcinoma (KB-3-1) and its multi-drug resistant variant (KB-V1), nasopharyngeal carcinoma (SUNE1) and its cisplatin-resistant variant (CNE1). The experiments were carried out by following the MTT procedure (see Mosmann et al., J. Immunol. Methods 65:55-63 (1983). The IC50 values of the gold(III) porphyrin complexes together with that of cisplatin, and KAuCl4 are provided in Table 4a; and the IC50 values of the gold(III) Schiff-base and bis(pyridyl)carboxamide complexes are shown in Table 4b. The cytotoxicity profiles of some selected gold(III) porphyrin complexes toward SUNE1 and its cisplatin-resistant variant CNE1 are also shown in FIG. 7."}, "[7]": {"test_system": "Human Hepatocellular Carcinoma (HepG2)", "assay": "MTT cytotoxicity, HepG2", "type": "cell-based", "conditions": "growth inhibition", "description": "as §2, §3"}, "[8]": {"test_system": "human cancer cell lines (HL-60, HepG2, HeLa, KB-3-1, KB-V1, SUNE1, CNE1)", "type": "cell-based", "conditions": "killing oral epidermoid and nasopharyngeal cancer cells", "description": "as §2, with “Cell Proliferation Kit I (MTT) was purchased from Roche (Mannheim, Germany).” left out\nThe anti-cancer activities of the gold(III) porphyrin complexes were evaluated toward some established human cancer cell lines: promyelocytic leukemia (HL-60), hepatocellular carcinoma (HepG2), cervix epitheloid carcinoma (HeLa), epidermoid carcinoma (KB-3-1) and its multi-drug resistant variant (KB-V1), nasopharyngeal carcinoma (SUNE1) and its cisplatin-resistant variant (CNE1). […]"}, "[9]": {"molecular_target": "T1, HIV-1 reverse transcriptase (Human immunodeficiency virus type 1 group M subtype B, UniProt P04585)", "T1 construct": "treatment of HIV-1 RT in Lysis buffer (2 ng, 128.7 μL) with Complex 1j", "assay": "HIV-1 reverse transcriptase activity, ELISA method", "type": "biochemical", "conditions": "drug concentration fixed at 6 μM", "method": "HIV-1 reverse transcriptase activities were measured by an ELISA method (see Eberle et al, J. Virol. Methods, 40:347-356 (1992) performed by incubating the enzyme with digoxigenin-labeled deoxyuridin-5′-triphosphate (dUTP) and the biotin-labeled analogue during reverse transcription starting from the template/primer hybrid poly(A)•oligo(dT)15. After reverse transcription, the newly synthesized DNA was immobilized onto streptavidin-coated ELISA wells, and the incorporation of the dioxigenin-labeled dUTP was assayed by chemiluminescence method. For example, treatment of HIV-1 RT in Lysis buffer (2 ng, 128.7 μL) with Complex 1j (1.3 μL of […] stock solution) dissolved in TBS at 37° C. produced significant RT activity inhibition (˜95%) after 30 min incubation."}, "plasmid DNA (pDR2)": {"test_system": "plasmid DNA (pDR2)", "assay": "Restriction endonuclease (ApaI) fragmentation assay", "conditions": "comparison compounds, lanes F and H of FIG. 8", "description": "Binding of the metalloporphyrin onto a duplex DNA such as plasmid DNA (pDR2) is expected to occupy the binding site of the restriction enzyme ApaI, thereby inhibiting the enzymatic DNA digestion. See Ikeda et al., J. Am. Chem. Soc. 104:296-297 (1982).\nAfter ApaI digestion, (lane B), three bands corresponding to 6.6, 4.4 and 2.0 kbp were observed."}, "calf thymus DNA [10]": {"test_system": "calf thymus DNA", "assay": "Viscosity evaluation of DNA", "conditions": "(η/ηo)^1/3 vs binding ratio r", "description": "Viscosity evaluation. The binding interaction of the gold(III) porphyrins can be further investigated by examining the change of DNA viscosity upon binding of the metalloporphyrin. If the metalloporphyrin binds to DNA by intercalation, this would cause chain elongation, unwinding and stiffening of the DNA helix as a consequence of untwisting of the base pairs and helical backbone needed to accommodate the intercalator.\nFor comparison, the viscosity profiles for ethidium bromide (intercalator) and Hoechst 33342 (minor groove binder) are also shown is FIG. 10."}},
  "data": [
    {"compound": "CN[C@@H]1C[C@H]2O[C@@](C)([C@@H]1OC)n1c3ccccc3c3c4c(c5c6ccccc6n2c5c31)C(=O)NC4", "note": "[straurosporine, reference compound]", "values": [
      {"measurement": "annexin V emission", "setting": "HeLa cells", "value": "the magnitude of the annexin V emission was enhanced"}
    ]},
    {"compound": "Fc1c(F)c(F)c(-c2c3nc(c(-c4c(F)c(F)c(F)c(F)c4F)c4ccc([n-]4)c(-c4c(F)c(F)c(F)c(F)c4F)c4nc(c(-c5c(F)c(F)c(F)c(F)c5F)c5ccc2[n-]5)C=C4)C=C3)c(F)c1F.[Au+3].[Cl-]", "note": "[Complex 1g]", "values": [
      {"measurement": "IC50 ratio [cisplatin/gold (III) porphyrin complexes] HeLa", "setting": "[1]", "value": 3.52},
      {"measurement": "IC50", "setting": "[1]; MTT, growth inhibition", "value": 3.18, "unit": "µM"},
      {"measurement": "IC50 ratio [cisplatin/gold (III) porphyrin complexes] SUNE1", "setting": "[2]", "value": 5.97},
      {"measurement": "IC50", "setting": "[2]; MTT, growth inhibition", "value": 2.11, "unit": "µM"},
      {"measurement": "bathochromic shift", "setting": "[3]", "value": 6, "unit": "nm"},
      {"measurement": "hypochromicity of the Soret band", "setting": "[3]", "value": 48, "unit": "%"},
      {"measurement": "hypochromicity", "setting": "calf thymus DNA [4]; 291.8 K", "value": 18.2, "unit": "%"},
      {"measurement": "intrinsic binding constant (Kb)", "setting": "calf thymus DNA [4]; 291.8 K", "value": "0.73 × 10^6 dm^3mol^−1"},
      {"measurement": "hypochromicity", "setting": "calf thymus DNA [4]; 297.6 K", "value": 18.0, "unit": "%"},
      {"measurement": "intrinsic binding constant (Kb)", "setting": "calf thymus DNA [4]; 297.6 K", "value": "0.58 × 10^6 dm^3mol^−1"},
      {"measurement": "hypochromicity", "setting": "calf thymus DNA [4]; 301.4 K", "value": 16.5, "unit": "%"},
      {"measurement": "intrinsic binding constant (Kb)", "setting": "calf thymus DNA [4]; 301.4 K", "value": "0.47 × 10^6 dm^3mol^−1"},
      {"measurement": "hypochromicity", "setting": "calf thymus DNA [4]; 306.1 K", "value": 10.1, "unit": "%"},
      {"measurement": "intrinsic binding constant (Kb)", "setting": "calf thymus DNA [4]; 306.1 K", "value": "0.42 × 10^6 dm^3mol^−1"},
      {"measurement": "hypochromicity", "setting": "calf thymus DNA [4]; 311.7 K", "value": 8.7, "unit": "%"},
      {"measurement": "intrinsic binding constant (Kb)", "setting": "calf thymus DNA [4]; 311.7 K", "value": "0.34 × 10^6 dm^3mol^−1"},
      {"measurement": "ΔH°", "setting": "calf thymus DNA [4]; binding to calf thymus DNA, van't Hoff analysis", "value": "−7.0 ± 0.4", "unit": "kcalmol^−1"},
      {"measurement": "ΔG° (298 K)", "setting": "calf thymus DNA [4]; binding to calf thymus DNA, van't Hoff analysis, 298 K", "value": "−7.8 ± 0.5"},
      {"measurement": "IC50 ratio [cisplatin/gold (III) porphyrin complexes] CNE1", "setting": "[5]", "value": 28.1},
      {"measurement": "IC50", "setting": "[5]; MTT, growth inhibition, cisplatin resistant", "value": 1.45, "unit": "µM"},
      {"measurement": "IC50", "setting": "[6]", "value": 1.45, "unit": "µM"},
      {"measurement": "IC50", "setting": "[7]", "value": 2.31, "unit": "µM"}
    ]},
    {"compound": "[Au+3].[Cl-].[Cl-].[Cl-].[Cl-].[K+]", "note": "[KAu^IIICl4, reference compound]", "values": [
      {"measurement": "times less potent than Complex 1a", "setting": "[8]", "value": "about 40 times"},
      {"measurement": "HIV-1 RT inhibition", "setting": "[9]", "value": 48, "unit": "%"}
    ]},
    {"compound": "CCOc1ccc(-c2nc3ccc(-c4nc5ccc(N6CCN(C)CC6)cc5[nH]4)cc3[nH]2)cc1", "note": "[Hoechst 33342, reference compound]", "values": [
      {"measurement": "effect on ApaI digestion of pDR2", "setting": "plasmid DNA (pDR2)", "value": "complete inhibition of the DNA digestion"},
      {"measurement": "change in viscosity of the DNA", "setting": "calf thymus DNA [10]", "value": "no appreciable change in viscosity of the DNA"}
    ]}
  ]
}
